One data set relates to panel of 4 panelists. Description: Organoleptic test against sucrose and baiyunoside (taste panel). Format: in vivo. Further details: key to compared to sucrose*: 3: sweeter than the control solution; 2: sweetness comparable with the control solution; 1: less sweet than the control solution but still sweet. As to conditions: for comment: cooling effect / comment: sweetness relative to Baiyunoside / comment: bitterness / off-taste / comment: lingering / persistence of sweet taste: 0.4 mg/ml (400 ppm) in non-carbonated mineral water; for comment: bitterness / off-taste / comment: lingering / persistence of sweet taste: compounds compared with Baiyunoside; for compared to sucrose*: sweetness score, 0.4 mg/ml (400 ppm) in non-carbonated mineral water vs sucrose 20 mg/ml, 4 panelists. An excerpt:
Organoleptic test of the compounds of formula (I) against sucrose and baiyunoside

Data set [1] can be described thus: Solubility in non-carbonated mineral water at the test concentration. As to conditions: 0.4 mg/ml (400 ppm) in non-carbonated mineral water.
Method: The isolated pure compounds were dissolved in non-carbonated mineral water ("Fonsana Quelle") in a concentration of 0.4 mg/ml (400 ppm).
For data set [2] the following is noted: literature; printed as "often >100x sweeter than sucrose"; cited from earlier work.
The conditions of data set [3]: quoted from Tanaka et al.; cited from earlier work.

Where two headings read alike, the source gives them in different places. Some results are limits rather than exact numbers.

For the compound “Baiyunol-3-(2'-arabinopyranosyl)-glucoside [Compound D]”, in the data set on panel of 4 panelists, the “comment: cooling effect” value is listed as “Shows a remarkable cooling effect”, the “comment: sweetness relative to Baiyunoside” value is reported as “Sweeter”, the “comment: bitterness / off-taste” value is listed as “as bitter as Baiyunoside” and the “comment: lingering / persistence of sweet taste” value (“comment: lingering / persistence” below) was “less lingering”. Moreover, the “compared to sucrose*” value in the data set on panel of 4 panelists is on record as 3. The solubility result in data set [1] is “not completely soluble but better soluble than Baiyunoisde”.
On to `C[C@H](CC[C@@H](O[C@@H]1O[C@H](CO[C@@H]2O[C@H](CO)[C@@H](O)[C@H](O)[C@H]2O)[C@@H](O)[C@H](O)[C@H]1O[C@@H]1O[C@H](CO)[C@@H](O)[C@H](O)[C@H]1O)C(C)(C)O)[C@H]1CC[C@@]2(C)[C@@H]3CC=C4[C@@H](CC[C@H](O[C@@H]5O[C@H](CO)[C@@H](O[C@@H]6O[C@H](CO)[C@@H](O)[C@H](O)[C@H]6O)[C@H](O)[C@H]5O)C4(C)C)[C@]3(C)[C@H](O)C[C@]12C` [iso-mogroside V], for which, in data set [2], the “sweetness relative to sucrose” value was over 100 x.
As for `CC1=C(CCc2ccoc2)C2(C)CCC(OC3OC(CO)C(O)C(OS(=O)(=O)O)C3OC3OCC(O)C(O)C3O)C(C)(C)C2CC1` (centres unmarked) [Compound B, Baiyunoside-3'-sulfate], in the data set with panel of 4 panelists, the “comment: cooling effect” value is reported as “Shows a remarkable cooling effect”, the “comment: sweetness relative to Baiyunoside” value is listed as “Sweeter”, the “comment: bitterness / off-taste” value is on record as “less bitter” and the “comment: lingering / persistence” value is recorded as “less lingering”. Besides, the “compared to sucrose*” value with panel of 4 panelists turned out to be 3.
Turning to Baiyunoside [reference compound], in the data set on panel of 4 panelists, the “comment: bitterness / off-taste” value was “bitter and licorice off-taste”; the “comment: lingering / persistence” value is “very long lingering and persistent sweet taste”. Further, the “sweetness compared with the sucrose solution (in words)” value in the data set with panel of 4 panelists (Baiyunoside solution at nominal 0.4 mg/ml, not completely dissolved, vs sucrose 20 mg/ml) is recorded as “comparable to the sweetness of the sucrose solution”. Further, in data set [1], the solubility result is “not completely soluble”. In data set [3], the duration of sweetness entry was “more than one h” and the “sweetness relative to sucrose” value is on record as “about 500 times”.
Turning to `CC1=C(CCc2ccoc2)C2(C)CCC(OC3OC(COS(=O)(=O)O)C(O)C(O)C3OC3OCC(O)C(O)C3O)C(C)(C)C2CC1` (centres unmarked) [Compound A, Baiyunoside-6'-sulfate], in the data set on panel of 4 panelists, the “comment: cooling effect” value is “Shows a remarkable cooling effect”, the “comment: sweetness relative to Baiyunoside” value was “Sweeter”, the “comment: bitterness / off-taste” value was “less bitter” and the “comment: lingering / persistence” value was “less lingering”. For the same compound, the “compared to sucrose*” value in the data set on panel of 4 panelists was 3.
The matching figures for `CC1=C(CCc2ccoc2)C2(C)CCC(OC3OC(COS(=O)(=O)O)C(O)C(O)C3O)C(C)(C)C2CC1` (centres unmarked) [Compound C, Baiyunol-3-glucosyl-6'-sulfate]: “Shows a remarkable cooling effect”, “Sweeter”, “less bitter”, “less lingering” and 3.
As for `C[C@H](CC[C@@H](O[C@@H]1O[C@H](CO[C@@H]2O[C@H](CO)[C@@H](O)[C@H](O)[C@H]2O)[C@@H](O)[C@H](O)[C@H]1O[C@@H]1O[C@H](CO)[C@@H](O)[C@H](O)[C@H]1O)C(C)(C)O)[C@H]1CC[C@@]2(C)[C@@H]3CC=C4[C@@H](CC[C@H](O[C@@H]5O[C@H](CO[C@@H]6O[C@H](CO)[C@@H](O)[C@H](O)[C@H]6O)[C@@H](O)[C@H](O)[C@H]5O)C4(C)C)[C@]3(C)[C@H](O)C[C@]12C` [mogroside V], in data set [2], the “sweetness relative to sucrose” value is over 100 x.
